Results from ChEMBL document CHEMBL6096676, “TarIKGC: A Target Identification Tool Using Semantics-Enhanced Knowledge Graph Completion with Application to CDK2 Inhibitor Discovery” (J Med Chem, 2025).

Columns and labels:
PC-9 = assay: Antiproliferative activity against human PC-9 cells measured after 48 to 72 hrs by CCK-8 method
AGS = assay: Antiproliferative activity against human AGS cells measured after 48 to 72 hrs by CCK-8 method
MKN-28 = assay: Antiproliferative activity against human MKN-28 cells measured after 48 to 72 hrs by CCK-8 method
SW-620 = assay: Antiproliferative activity against human SW620 cells measured after 48 to 72 hrs by CCK-8 method
Huh-7 = assay: Antiproliferative activity against human Huh-7 cells measured after 48 to 72 hrs by CCK-8 method
[1] = Antiproliferative activity against human THLE-2 cells measured after 48 to 72 hrs by CCK-8 method
[2] = Antiproliferative activity against HEK293T cells measured after 48 to 72 hrs by CCK-8 method; details: human

IC50 (PC-9): 7.28 µM
IC50 (AGS): 6.84 µM
IC50 (MKN-28): 8.73 µM
IC50 (SW-620): 2070 nM
IC50 (Huh-7): 5.78 µM
Structure (SMILES): COc1ccc(CNc2nc(N(CCO)CCO)nc3c2ncn3C(C)C)cc1
IC50 [1]: 15 µM
IC50 [2]: 11.5 µM
